Test system: 129 MEFs transduced with OK (Oct4 and Klf4)
Experiment: Screen for iPSC generation from OK-transduced 129 MEFs (ESC-like colony morphology, ALP staining)
Assay type: cell-based, mouse
Protocol: Unmodified MEFs derived from E13-14 embryos of the 129 mice were used for the initial screen. MEFs were plated on Matrigel at 3.5×10^4 cells/well of a 6-well plate and transduced with OK (retroviral vectors expressing Oct4 and Klf4) alone. Within 14-21 days, treated cells were assessed for the appearance of colonies that had the characteristic embryonic stem cell (ESC), colony morphology and were positive for the pluripotency marker alkaline phosphatase (ALP). Such OK-transduced cells generated only a few small non-compact colonies, which were weakly positive for ALP expression. These colonies initially appeared within 21 days after viral transduction and were difficult to expand. Therefore, such assay system offered a clean background for the identification of small molecules having desirable reprogramming inducing activity. Using this system, compounds from a library of around 2000 known small molecules (see Experimental Procedures below) were screened and were identified as hits when they induced the appearance of ESC colonies that were strongly positive for ALP within 14-21 days after treatment. This image-based method provided a more accurate assessment of reprogramming as compared to homogenous reporter-based assay. BIX appeared to have the strongest effect with reproducible induction of more than 1-2 compact ESC-like colonies with high ALP expression. We observed that when MEFs were treated with BIX after OK viral transduction, compact colonies with strong ALP expression could be readily detected within approximately 14-21 days. These cells were also positive for Nanog, Oct4 and SSEA-1 expression. […] However, the reprogramming efficiency in MEFs transduced with OK and treated with BIX was still low, about 2 colonies/3.5×10^4 cells, in comparison to the four factor-induced reprogramming of MEFs or the OK/BIX NPC reprogramming (Shi, Y. et al., Cell Stem Cell, 2:525-528 (2008)). Therefore, we conducted a second screen using a similar protocol, but where BIX was added to the basal media after OK viral transduction. This provided a more permissive platform to identify new small molecules that could further improve reprogramming efficiency. More importantly, this second screen could facilitate discovery of small molecules that impact reprogramming in a more specific manner, for example by acting on signal transduction pathways rather than on histone or DNA modifying enzymes. In this second screen, we again assayed the library of around 2000 known small molecules (see Experimental Procedures), and confirmed two compounds that were able to act in a synergistic manner with BIX to improve reprogramming based on the criteria of the screen. […] Therefore, RG108 was not pursued further for this study. […]

COc1cc2nc(N3CCCN(C)CC3)nc(NC3CCN(Cc4ccccc4)CC3)c2cc1OC [BIX01294]
reprogramming efficiency (MEFs transduced with OK and treated with compound): about 2 colonies/3.5×10^4 cells
number of ALP+ colonies that closely resemble the mESC morphology (OK-transduced MEFs): about 2 colonies
induction of compact ESC-like colonies with high ALP expression (primary screen, compounds 0.5-2 μM, 14-21 days, 3.5×10^4 cells/well): 1-2 colonies

Reference: patent US9540615B2, “Combined chemical and genetic approaches for generation of induced pluripotent stem cells” (The Scripps Research Institute, priority 2008, dated 2017)
